{"source": "patent US20240094197A1", "about": "“Method for removing protein corona of the surface of nanometer particle” (ZHEJIANG UNIVERSITY, priority 2022, published 2024)", "key": {"BxPC3 cells": {"test_system": "BxPC3 cells", "experiment": "Transcytosis transport in tumor cells", "type": "cell-based, human", "conditions": "BxPC3 cells pretreated with EXO1 20 μM; serum-containing medium, with ultrasound stimulation", "description": "BxPC3 cells (1×10^5 cells/mL, 1 mL) were cultured in a confocal dish for 24 h, and the culture medium was then replaced with 1 mL fresh serum-free medium. Next, the mixture of Cy5-labeled GL, LGL, PGL or LPGL liposome (equivalent to fluorescent lipids of 60 μg/mL, 20 μL) and serum-containing medium or serum-free medium was respectively added into the confocal dish, and subsequently treated with or without ultrasound stimulation (acoustic intensity: 2 W/cm^2, frequency: 3 MHz, duty cycle: 50%, duration time: 5 min). After incubation of 3 h, the dishes were washed twice with PBS. A total of 1×10^5 fresh cells in 1 mL of fresh serum-free medium was added to the dishes. The mixed cells were continuously incubated for 0 min, 30 min, and 120 min. The transcellular transport of liposome from previously added cells to newly added cells was photographed at incubation time of 0 min, 30 min, and 120 min with a CLSM using 640 nm excitation wavelength. Then the newly added cells at 120 min of incubation were washed away and collected into a centrifugal tube, and detected using flow cytometry. Meanwhile, BxPC3 cells pretreated with an exocytosis inhibitor EXO1 (20 μM) were tested using the same method to investigate the inhibition of transcellular transport."}, "[1]": {"test_system": "3D multicellular tumor spheroids of BxPC3", "experiment": "Penetration in tumor spheroids (CLSM)", "type": "cell-based, human", "conditions": "EXO1 20 μM pretreatment", "description": "The 3D multicellular tumor spheroids of BxPC3 pretreated with or without exocytosis inhibitor EXO1 (20 μM) were transferred to a confocal dish containing fresh serum-free medium. The mixture of Cy5-labeled LPGL, PGL, LGL or GL liposome (equivalent to fluorescent lipids of 60 μg/mL, 30 μL) and fresh serum-containing medium were added, and treated with ultrasound stimulation (acoustic intensity: 2 W/cm^2, frequency: 3 MHz, duty cycle: 50%, duration time: 5 min), then incubated for 6 h. After washing with PBS, images were obtained with CLSM in XYZ-3D-stack at 25-μm intervals from apex to equator."}}, "data": [{"compound": "COC(=O)c1ccccc1NC(=O)c1ccc(F)cc1", "note": "[EXO1]", "values": [{"measurement": "effect on transcytosis transport of LPGL liposome", "setting": "BxPC3 cells", "result": "could be inhibited"}, {"measurement": "effect on permeability of LPGL liposome into the 3D spheroid of BxPC3", "setting": "[1]", "result": "could significantly inhibit the permeability of LPGL liposome"}]}]}
